Like-named read-outs stand apart in the source and are kept apart here.

The target of one assay is recombinant human PREP (Homo sapiens (Human), UniProt P48147). Kind of assay: In vitro enzyme IC50 assay, PREP. Particulars: read-out: PREP Inhibition (IC50). It is filed as biochemical. An excerpt: (§1) The peptide libraries XPYSWS-NH2, Ac-XPYSWS-NH2, GXYSWS-NH2, and Ac-GXYSWS-NH2, where X represents all natural amino acids except cysteine were synthesized by the Tufts University Core Facility. The DPPIV enzyme used for the specificity studies was previously purified by our laboratory at Tufts University from human placenta, and the purified human FAP enzyme used for these studies was kindly provided by Syrxx, Inc. For the in vitro IC50 determination assays, recombinant human DPPIV, DPP9, FAP, and PREP were purchased from R&D Systems, and DPP8 was from Biomol International. Buffer systems used were A (25 mM Tris, pH 8.0), B (50 mM Tris, pH 7.5), C (50 mM Tris, 140 mM NaCl, pH 7.5), D (25 mM Tris, 250 mM NaCl, pH 7.5), and E (20 mM Tris, 20 mM KCl, pH 7.4).
Sequence of recombinant human PREP (P48147 whole entry): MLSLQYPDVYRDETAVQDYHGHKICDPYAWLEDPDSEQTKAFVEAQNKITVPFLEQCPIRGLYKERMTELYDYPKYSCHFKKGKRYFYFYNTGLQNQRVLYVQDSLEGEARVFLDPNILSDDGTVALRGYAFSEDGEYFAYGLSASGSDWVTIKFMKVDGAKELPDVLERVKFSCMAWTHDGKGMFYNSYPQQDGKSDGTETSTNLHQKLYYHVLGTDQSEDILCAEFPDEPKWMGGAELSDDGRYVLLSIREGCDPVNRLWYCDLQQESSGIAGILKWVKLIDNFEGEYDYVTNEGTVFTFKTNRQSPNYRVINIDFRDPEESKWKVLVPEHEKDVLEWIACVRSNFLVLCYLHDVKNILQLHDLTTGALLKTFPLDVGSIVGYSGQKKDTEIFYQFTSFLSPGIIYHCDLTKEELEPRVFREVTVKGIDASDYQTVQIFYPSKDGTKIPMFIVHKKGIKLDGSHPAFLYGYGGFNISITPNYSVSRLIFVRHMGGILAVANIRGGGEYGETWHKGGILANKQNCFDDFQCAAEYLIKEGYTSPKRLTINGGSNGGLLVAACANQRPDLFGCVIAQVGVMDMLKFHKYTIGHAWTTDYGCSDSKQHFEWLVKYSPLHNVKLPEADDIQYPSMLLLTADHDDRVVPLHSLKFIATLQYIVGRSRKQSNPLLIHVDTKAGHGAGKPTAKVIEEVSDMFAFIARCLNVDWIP
(§2) In Vitro Enzyme IC50 Assays
(§3) Enzymatic activity of DPPIV, DPP8, DPP9, FAP, and PREP was measured at 25° C. on a Molecular Devices M2^e multidetection microtiter plate reader, monitoring the fluorescence at an excitation wavelength of 380 nm and an emission wavelength of 460 nm. The substrate was either H-Gly-Pro-AMC for the DPPIV, DPP8, and DPP9 assays or Z-Gly-Pro-AMC for the FAP and PREP assays.
(§4) A (DPPIV and DPP9), buffer B (DPP8), buffer C (FAP), or buffer D (PREP) and a suitable amount of inhibitor (ranging between 10^−4 and 10^−11M) in a total volume of 210 μL. The final enzyme concentrations were 0.1, 0.8, 0.4, 1.2, and 0.6 nM for DPPIV, DPP8, DPP9,
(§5) FAP, and PREP, respectively. […] Those prepared in pH 2.0 solution were preincubated at 25° C. for 4 h prior to dilution. Immediately prior to the commencement of the experiment, the 100 mM stocks were further diluted to 10^−3M in the appropriate assay buffer, from which 1:10 serial dilutions were prepared. All inhibitors were tested in triplicate.

The target of a further assay is recombinant human FAP (Homo sapiens (Human), UniProt Q12884). Kind of assay: In vitro enzyme IC50 assay, FAP. It is filed as biochemical. To be noted: for IC50: read-out: FAP Inhibition (IC50).
Sequence of recombinant human FAP (Q12884 whole entry): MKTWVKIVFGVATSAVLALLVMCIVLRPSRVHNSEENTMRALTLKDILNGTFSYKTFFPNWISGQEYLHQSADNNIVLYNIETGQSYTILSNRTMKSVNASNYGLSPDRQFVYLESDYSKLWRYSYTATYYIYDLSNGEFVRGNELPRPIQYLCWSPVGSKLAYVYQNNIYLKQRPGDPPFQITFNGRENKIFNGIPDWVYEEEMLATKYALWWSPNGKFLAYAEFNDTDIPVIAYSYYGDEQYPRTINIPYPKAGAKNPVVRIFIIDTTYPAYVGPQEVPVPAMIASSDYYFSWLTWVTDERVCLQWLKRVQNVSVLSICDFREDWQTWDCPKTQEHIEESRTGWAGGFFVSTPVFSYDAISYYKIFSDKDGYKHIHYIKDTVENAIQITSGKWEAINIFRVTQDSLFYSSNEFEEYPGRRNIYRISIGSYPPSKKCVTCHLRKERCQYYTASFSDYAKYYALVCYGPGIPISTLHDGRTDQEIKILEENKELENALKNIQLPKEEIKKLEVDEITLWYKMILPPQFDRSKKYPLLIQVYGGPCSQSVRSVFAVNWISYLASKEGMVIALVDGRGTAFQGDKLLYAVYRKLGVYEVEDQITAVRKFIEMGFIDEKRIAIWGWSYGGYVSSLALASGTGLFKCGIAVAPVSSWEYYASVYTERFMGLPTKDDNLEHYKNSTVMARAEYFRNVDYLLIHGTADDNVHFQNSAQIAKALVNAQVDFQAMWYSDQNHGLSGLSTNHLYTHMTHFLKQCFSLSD
From the text: as §1, §2, §3, §4, §5

The IC50 is the concentration that gives 50% inhibition. In the case of `C[C@@H](NC(=O)c1ccc(F)cc1)C(=O)N1CCC[C@H]1B(O)O`, the half-inhibitory concentration (IC50) at recombinant human PREP (pH2.0) is 4100 nM; on recombinant human PREP (pH7.5), 5700 nM; on recombinant human FAP (pH2.0), 220 nM; at recombinant human FAP (pH7.5), 260 nM. For the same molecule, the “FAP Selectivity, IC50(PREP)/IC50(FAP)” value at recombinant human FAP (pH2.0) worked out at 19; on recombinant human FAP (pH7.5), 22.
Consider `C[C@@H](NC(=O)c1c(F)c(F)c(F)c(F)c1F)C(=O)N1CCC[C@H]1B(O)O`, for which the half-inhibitory concentration (IC50) at recombinant human PREP (pH2.0) amounted to 1200 nM; on recombinant human PREP (pH7.5), 1500 nM; at recombinant human FAP (pH2.0), 450 nM; on recombinant human FAP (pH7.5), 330 nM. Also, the “FAP Selectivity, IC50(PREP)/IC50(FAP)” value is on record as 2.7 at recombinant human FAP (pH2.0) and 4.5 at recombinant human FAP (pH7.5).
`C[C@@H](NC(=O)c1cccc(OCF)c1)C(=O)N1CCC[C@H]1B(O)O`: the IC50 at recombinant human PREP (pH2.0) was determined as 48 nM; on recombinant human PREP (pH7.5), 53 nM; on recombinant human FAP (pH2.0) it was 130 nM; on recombinant human FAP (pH7.5), 130 nM. The “FAP Selectivity, IC50(PREP)/IC50(FAP)” value on recombinant human FAP (pH2.0) was found to be 0.37; on recombinant human FAP (pH7.5) it was 0.41.
Regarding `C[C@@H](NC(=O)c1cc(F)nc(F)c1)C(=O)N1CCC[C@H]1B(O)O`, the IC50 was found to be 2300 nM at recombinant human PREP (pH2.0), 2500 nM at recombinant human PREP (pH7.5), 100 nM at recombinant human FAP (pH2.0) and 130 nM at recombinant human FAP (pH7.5). Also, the “FAP Selectivity, IC50(PREP)/IC50(FAP)” value at recombinant human FAP (pH2.0) is recorded as 23; at recombinant human FAP (pH7.5), 19.
As to `C[C@@H](NC(=O)c1ccc(F)cc1F)C(=O)N1CCC[C@H]1B(O)O`, the IC50 came to 790 nM on recombinant human PREP (pH2.0), 1400 nM on recombinant human PREP (pH7.5), 690 nM at recombinant human FAP (pH2.0) and 390 nM at recombinant human FAP (pH7.5). Moreover, the “FAP Selectivity, IC50(PREP)/IC50(FAP)” value is recorded as 1.1 on recombinant human FAP (pH2.0) and 3.6 on recombinant human FAP (pH7.5).
Regarding `C[C@@H](NC(=O)c1ccnc(F)c1F)C(=O)N1CCC[C@H]1B(O)O`, the IC50 at recombinant human PREP (pH2.0) stood at 1900 nM; at recombinant human PREP (pH7.5), 2200 nM; on recombinant human FAP (pH2.0) it was 130 nM; on recombinant human FAP (pH7.5) it was 150 nM. Besides, the “FAP Selectivity, IC50(PREP)/IC50(FAP)” value on recombinant human FAP (pH2.0) and on recombinant human FAP (pH7.5) was 15 each time.
`C[C@@H](NC(=O)c1ccccc1F)C(=O)N1CCC[C@H]1B(O)O`: the half-inhibitory concentration (IC50) at recombinant human PREP (pH2.0) amounted to 2200 nM; at recombinant human PREP (pH7.5), 3100 nM; on recombinant human FAP (pH2.0), 390 nM; at recombinant human FAP (pH7.5), 650 nM. Moreover, the “FAP Selectivity, IC50(PREP)/IC50(FAP)” value at recombinant human FAP (pH2.0) came out at 5.6; at recombinant human FAP (pH7.5), 4.8.
Take `C[C@@H](NC(=O)c1cc(F)ncc1F)C(=O)N1CCC[C@H]1B(O)O`: the half-inhibitory concentration (IC50) at recombinant human PREP (pH2.0) stood at 2000 nM; on recombinant human PREP (pH7.5), 2300 nM; on recombinant human FAP (pH2.0) it was 140 nM; on recombinant human FAP (pH7.5), 140 nM. In addition, the results for the “FAP Selectivity, IC50(PREP)/IC50(FAP)” value on recombinant human FAP (pH2.0) and on recombinant human FAP (pH7.5) were 14 and 16, respectively.
Regarding `C[C@@H](NC(=O)c1ccc(OCF)cc1)C(=O)N1CCC[C@H]1B(O)O`, the IC50 amounted to 2000 nM at recombinant human PREP (pH2.0), 1900 nM on recombinant human PREP (pH7.5), 240 nM at recombinant human FAP (pH2.0) and 240 nM at recombinant human FAP (pH7.5). Further, the “FAP Selectivity, IC50(PREP)/IC50(FAP)” value on recombinant human FAP (pH2.0) is 8.3; on recombinant human FAP (pH7.5), 7.9.

The record behind these values is patent publication US20240366807A1, “RADIOFLUORINATED AGENTS FOR PET IMAGING SELECTIVELY TARGETING FIBROBLAST ACTIVATION PROTEIN” (Trustees of tufts college, priority 2021, published 2024).
